Assay results taken from patent US7498347B2, “Hydroxycarbonylphenyl substituted 4-(aminomethyl)-piperidine benzamides as 5HT4 antagonists” (Janssen Pharmaceutica, N.V., priority 2004, dated 2009).
Counter-ions that a name gives are not always drawn.

How the values were obtained:
h5-HT4b = biological target: T1, h5-HT4b (Homo sapiens, UniProt Q13639); assay: 5HT4 antagonism: [3H]GR113808 binding to membranes of h5-HT4b-HEK 293 clone 9 cells; conditions: displacement of [3H]GR113808 0.1 nM, h5-HT4b-HEK 293 membranes, 30 min at 25° C.; read-out: pIC50 (5HT4 antagonistic data) (converted)
T1 construct: expressed in transfected cells; host or cells: HEK 293 (clone 9), membrane preparation
Description: h5-HT4b-HEK 293 clone 9 cells were cultured in 150 mm Petri dishes and washed twice with cold PBS. The cells were then scraped from the plates and suspended in 50 mM Tris-HCl buffer, pH 7.4 and harvested by centrifugation at 23,500 rpm for 10 minutes. The pellet was resuspended in 5 mM Tris-HCl, pH 7.4 and homogenized with an Ultra Turrax homogenizer. The membranes were collected by centrifugation at 30,000 rpm for 20 min, resuspended in 50 mM Tris-HCl pH 7.4 and stored at −80° C. For the experiment, assay mixtures (0.5 ml) contained 50 μl of the tritiated ligand (5-HT4 antagonist [^3H]GR113808 0.1 nM) and 0.4 ml membrane preparation (15 μg protein/ml). 50 μl of 10% DMSO was added for total binding. 50 μl of 1 μM of (+)-trans-(1-butyl-3-hydroxy-4-piperidinyl)methyl 8-amino-7-chloro-2,3-dihydro-1,4-benzodioxin-5-carboxylate (a proprietary 5HT4 agonist of Janssen Pharmaceutica) was added for determination of non-specific binding.
The [^3H]GR113808 assay buffer was 50 mM HEPES-NaOH, pH 7.4. The mixtures were incubated for 30 min at 25° C. The incubation was terminated by filtration over a Unifilter 96 GF/B presoaked in 0.1% polyethylenimine, followed by six washing steps with 50 mM HEPES-NaOH, pH 7.4.

[1] = Metabolic stability in liver microsomes, LC-MS analysis; type: in vitro ADME; conditions: compound 5 μM, microsomes 1 mg/ml, NADPH-generating system, 60 minutes at 37 degrees Celsius
Description: Sub-cellular tissue preparations were made according to Gorrod et al. (Xenobiotica 5: 453-462, 1975) by centrifugal separation after mechanical homogenization of tissue. Liver tissue was rinsed in ice-cold 0.1 M Tris-HCl (pH 7.4) buffer to wash excess blood. Tissue was then blotted dry, weighed and chopped coarsely using surgical scissors. The tissue pieces were homogenized in 3 volumes of ice-cold 0.1 M phosphate buffer (pH 7.4).
Tissue homogenates were centrifuged at 9000×g for 20 minutes at 4° C. The resulting supernatant was stored at −80° C. and is designated ‘S9’.
The S9 fraction can be further centrifuged at 100.000×g for 60 minutes (4° C.). The resulting supernatant was carefully aspirated, aliquoted and designated ‘cytosol’. The pellet was re-suspended in 0.1 M phosphate buffer (pH 7.4) in a final volume of 1 ml per 0.5 g original tissue weight and designated ‘microsomes’.
All sub-cellular fractions were aliquoted, immediately frozen in liquid nitrogen and stored at −80° C. until use.
For the samples to be tested, the incubation mixture contained PBS (0.1M), compound (5 μM), microsomes (1 mg/ml) and a NADPH-generating system (0.8 mM glucose-6-phosphate, 0.8 mM magnesium chloride and 0.8 Units of glucose-6-phosphate dehydrogenase). Control samples contained the same material but the microsomes were replaced by heat inactivated (10 minutes at 95 degrees Celsius) microsomes. Recovery of the compounds in the control samples was always 100%.
The mixtures were preincubated for 5 minutes at 37 degrees Celsius. The reaction was started at time point zero (t=0) by addition of 0.8 mM NADP and the samples were incubated for 60 minutes (t=60). The reaction was terminated by the addition of 2 volumes of DMSO. Then the samples were centrifuged for 10 minutes at 900×g and the supernatants were stored at room temperature for no longer as 24 hours before analysis. All incubations were performed in duplo. Analysis of the supernatants was performed with LC-MS analysis. Elution of the samples was performed on a Xterra MS C18 (50×4.6 mm, 5 μm, Waters, US). An Alliance 2790 (Supplier: Waters, US) HPLC system was used. Elution was with buffer A (25 mM ammoniumacetate (pH 5.2) in H2O/acetonitrile (95/5)), solvent B being acetonitrile and solvent C methanol at a flow rate of 2.4 ml/min. The gradient employed was increasing the organic phase concentration from 0% over 50% B and 50% C in 5 min up to 100% B in 1 minute in a linear fashion and organic phase concentration was kept stationary for an additional 1.5 minutes. Total injection volume of the samples was 25 μl.
A Quatro triple quadrupole mass spectrometer fitted with and ESP source was used as detector. The source and the desolvation temperature were set at 120 and 350° C. respectively and nitrogen was used as nebuliser and drying gas. Data were acquired in positive scan mode (single ion reaction). Cone voltage was set at 10 V and the dwell time was 1 second.
Metabolic stability was expressed as % metabolism of the compound after 60 minutes (equation given as example) of incubation in the presence of active microsomes (E(act))

T1 sequence (Q13639 whole entry): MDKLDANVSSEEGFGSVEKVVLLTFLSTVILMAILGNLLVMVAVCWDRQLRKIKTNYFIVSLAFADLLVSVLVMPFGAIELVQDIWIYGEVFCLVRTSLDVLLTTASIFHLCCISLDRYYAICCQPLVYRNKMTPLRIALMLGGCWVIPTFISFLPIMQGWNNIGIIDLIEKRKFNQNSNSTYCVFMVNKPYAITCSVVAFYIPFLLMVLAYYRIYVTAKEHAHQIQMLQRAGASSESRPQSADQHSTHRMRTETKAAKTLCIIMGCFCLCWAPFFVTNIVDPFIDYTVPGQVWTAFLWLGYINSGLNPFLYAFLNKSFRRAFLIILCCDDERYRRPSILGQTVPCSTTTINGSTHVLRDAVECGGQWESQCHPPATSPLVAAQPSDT

Compound	melting point [°C]	IC50 (h5-HT4b) [nM]	% metabolized (% metabolised compound after 60 minutes) [1] [%]
O=C(O)c1ccc(OCCCN2CCC(CNC(=O)c3cc(Cl)c(Cl)c4c3OCCCO4)C(O)C2)cc1 (stereo not shown) (as salt: HCl) [compound 16]	256		
Cc1ccc(C(=O)NC[C@@H]2CCN(CCOc3ccc(C(=O)O)cc3)C[C@H]2O)c2c1OCCCO2 (hydrate or solvate) [compound 8]	> 120		
O=C(O)c1ccc(OCCCN2CC[C@@H](CNC(=O)c3cc(Cl)c(Br)c4c3OCCCO4)[C@H](O)C2)cc1 (relative stereo) (as salt: HCl) (hydrate or solvate) [compound 17]	268		
O=C(O)c1ccccc1OCCCN1CC[C@@H](CNC(=O)c2cc(Cl)cc3c2OCCCO3)[C@H](O)C1 (relative stereo) [compound 7]	148	79.4	14
Cc1cc2c(c(C(=O)NC[C@@H]3CCN(CCCOc4ccc(C(=O)O)cc4)C[C@H]3O)c1)OCCCO2 (relative stereo) [compound 13]	118	20.9	
O=C(O)c1ccc(OCCCN2CC[C@@H](CNC(=O)c3cc(Cl)c(Br)c4c3OCCCO4)[C@H](O)C2)cc1 (relative stereo) [compound 17]		5.62	6
CO[C@@H]1CN(CCCOc2ccc(C(=O)O)cc2)CC[C@H]1CNC(=O)c1cc(Cl)c(Cl)c2c1OCCCO2 (relative stereo) [compound 20]	200	7.76	
Cc1cc2c(c(C(=O)NC[C@@H]3CCN(CCCOc4ccccc4C(=O)O)C[C@H]3O)c1)OCCCO2 [Co. No. 1]	114		
Cc1cc2c(c(C(=O)NC[C@@H]3CCN(CCCOc4ccccc4C(=O)O)C[C@H]3O)c1)OCCCO2 [compound 1]		120	
Cc1cc2c(c(C(=O)NC[C@@H]3CCN(CCCCOc4ccc(C(=O)O)cc4)C[C@H]3O)c1)OCCCO2 [compound 2]	188	9.55	6
Cc1ccc(C(=O)NC[C@@H]2CCN(CCCCOc3ccc(C(=O)O)cc3)C[C@H]2O)c2c1OCCCO2 [compound 3]	170	4.9	16
O=C(O)c1ccc(OCCN2CC[C@@H](CNC(=O)c3cc(Cl)cc4c3OCCCO4)[C@H](O)C2)cc1 [compound 4]	220 to 225	14.5	
O=C(O)c1ccc(OCCCCN2CC[C@@H](CNC(=O)c3cc(Cl)cc4c3OCCCO4)[C@H](O)C2)cc1 [compound 5]	190	5.13	15
Cc1cc2c(c(C(=O)NC[C@@H]3CCN(CCOc4ccc(C(=O)O)cc4)C[C@H]3O)c1)OCCCO2 [compound 6]	175	63.1	
Cc1ccc(C(=O)NC[C@@H]2CCN(CCOc3ccc(C(=O)O)cc3)C[C@H]2O)c2c1OCCCO2 [compound 8]		42.7	
O=C(O)c1ccc(OCCCN2CCC(CNC(=O)c3cc(Cl)cc4c3OCCCO4)C(O)C2)cc1 (stereo not shown) [compound 9]	122	11.2	7.5
Cc1ccc(C(=O)NC[C@@H]2CCN(CCCOc3cccc(C(=O)O)c3)C[C@H]2O)c2c1OCCCO2 [compound 11]	120	8.51	1
Cc1cc2c(c(C(=O)NCC3CCN(CCCOc4cccc(C(=O)O)c4)CC3O)c1)OCCCO2 (stereo not shown) [compound 12]	122	23.4	0
Cc1ccc(C(=O)NC[C@@H]2CCN(CCCOc3ccc(C(=O)O)cc3)C[C@H]2O)c2c1OCCCO2 [compound 14]	155	8.71	0
O=C(O)c1ccc(OCCCN2CCC(CNC(=O)c3cc(Cl)c(Cl)c4c3OCCCO4)C(O)C2)cc1 (stereo not shown) [compound 16]		7.59	3
COc1ccc(C(=O)NCC2CCN(CCCOc3ccc(C(=O)O)cc3)CC2OC)c2c1OCCCO2 (stereo not shown) [compound 21]	179.4 to 189.2	66.1	
COC1CN(CCCOc2ccc(C(=O)O)cc2)CCC1CNC(=O)c1cc(C)cc2c1OCCCO2 (stereo not shown) [compound 22]		13.5	6
